Earlier results as cited in US20090291974A1, “BOSENTAN SALTS” (priority 2008, published 2009).

Columns and labels:
[1] = acidic and basic centers, overall value
[2] = not given; remark: listed apart in the source

| solubility in aqueous solution at pH 1.1 (aqueous solution, pH 1.1) | solubility in aqueous solution at pH 4.0 (aqueous solution, pH 4.0) | solubility in aqueous solution at pH 5.0 (aqueous solution, pH 5.0) | solubility in aqueous solution at pH 7.5 (aqueous solution, pH 7.5) | solubility in water (water) | overall pKa [1] | solubility in acetone ([2]; acetone) | solubility in dichloromethane ([2]; dichloromethane) | solubility in ethanol ([2]; ethanol) | solubility in ethyl acetate ([2]; ethyl acetate) | solubility in hexane ([2]; hexane) | solubility in isopropanol ([2]; isopropanol) | solubility in methanol ([2]; methanol) | SMILES |
| --- | --- | --- | --- | --- | --- | --- | --- | --- | --- | --- | --- | --- | --- |
| 0.1 mg/100 ml | 0.1 mg/100 ml | 0.2 mg/100 ml | 43 mg/100 ml | 1.0 mg/100 ml | 5.46 |  |  |  |  |  |  |  | COc1ccccc1Oc1c(NS(=O)(=O)c2ccc(C(C)(C)C)cc2)nc(-c2ncccn2)nc1OCCO [Bosentan] |
|  |  |  |  |  |  | freely soluble | freely soluble | soluble | soluble | very slightly soluble | slightly soluble | slightly soluble | COc1ccccc1Oc1c(NS(=O)(=O)c2ccc(C(C)(C)C)cc2)nc(-c2ncccn2)nc1OCCO [Bosentan monohydrate, bosentan monohydrate] |
